Laboratory results published in PubChem BioAssay (NCI).
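1) Cells in 96-well plates. 2) Compound, 48 h, 5 concentrations. 3) Linear interpolation between surrounding doses. 4) Unreached endpoint = highest concentration. Definition used: TGI = concentration required for complete inhibition of growth.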

Columns and labels:
Assay in all cases: inhibition of tumour cell growth, NCI panel, 48 h
MOLT-4 leukemia = system: MOLT-4 leukemia
HOP-62 NSCLC = system: HOP-62 NSCLC
SNB-19 CNS = system: SNB-19 CNS
A498 renal = system: A498 renal
IGROV1 ovarian = system: IGROV1 ovarian
NCI/ADR-RES ovarian = system: NCI/ADR-RES ovarian
HS 578T breast = system: HS 578T breast
OVCAR-5 ovarian = system: OVCAR-5 ovarian
U251 CNS = system: U251 CNS
PC-3 prostate = system: PC-3 prostate
NCI-H460 lung = system: NCI-H460 lung
SK-MEL-2 melanoma = system: SK-MEL-2 melanoma
KM12 colon = system: KM12 colon
SF-539 CNS = system: SF-539 CNS
ACHN renal = system: ACHN renal
SR leukemia = system: SR leukemia
BT-549 breast = system: BT-549 breast
NCI-H226 lung = system: NCI-H226 lung
HCC-2998 colon = system: HCC-2998 colon
HOP-92 NSCLC = system: HOP-92 NSCLC
MDA-MB-231 breast = system: MDA-MB-231 breast
SF-295 CNS = system: SF-295 CNS
HCT-15 colon = system: HCT-15 colon
786-0 renal = system: 786-0 renal
OVCAR-4 ovarian = system: OVCAR-4 ovarian
CAKI-1 renal = system: CAKI-1 renal
K-562 leukemia = system: K-562 leukemia
SK-OV-3 ovarian = system: SK-OV-3 ovarian
MDA-MB-435 = system: MDA-MB-435
COLO 205 colon = system: COLO 205 colon
CCRF-CEM leukemia = system: CCRF-CEM leukemia
RXF 393 renal = system: RXF 393 renal
A549 NSCLC = system: A549 NSCLC
SK-MEL-5 melanoma = system: SK-MEL-5 melanoma
MDA-N = system: MDA-N
RPMI-8226 leukemia = system: RPMI-8226 leukemia
T-47D breast = system: T-47D breast
NCI-H522 lung = system: NCI-H522 lung
UACC-257 melanoma = system: UACC-257 melanoma
UACC-62 melanoma = system: UACC-62 melanoma
SF-268 CNS = system: SF-268 CNS
MCF7 breast = system: MCF7 breast
HCT-116 colon = system: HCT-116 colon
SN12C renal = system: SN12C renal
LOX IMVI melanoma = system: LOX IMVI melanoma
MALME-3M melanoma = system: MALME-3M melanoma
DU-145 prostate = system: DU-145 prostate
SK-MEL-28 melanoma = system: SK-MEL-28 melanoma
M14 melanoma = system: M14 melanoma
OVCAR-3 ovarian = system: OVCAR-3 ovarian
EKVX NSCLC = system: EKVX NSCLC
TK-10 renal = system: TK-10 renal
SNB-75 CNS = system: SNB-75 CNS
SW-620 colon = system: SW-620 colon
NCI-H23 lung = system: NCI-H23 lung
HT29 colon = system: HT29 colon

Question: `CC(=O)OC/C=C(/C=C/CNC1CCCCC1)OC(C)=O` was tested. Which TGI (MOLT-4 leukemia) did it give?
Answer: Its TGI is greater than 100 µM.

Question: And the TGI (HOP-62 NSCLC)?
Answer: The TGI was 31.1 µM.

Question: What about the TGI (SNB-19 CNS) of the same compound?
Answer: Its TGI is 49.9 µM.

Question: And the TGI (A498 renal)?
Answer: Its TGI is 33.9 µM.

Question: And the TGI (IGROV1 ovarian)?
Answer: Its TGI is 34.3 µM.

Question: What about the TGI (NCI/ADR-RES ovarian) of the same compound?
Answer: The TGI was 44.6 µM.

Question: What about the TGI (HS 578T breast) of the same compound?
Answer: Its TGI is 80.7 µM.

Question: What about the TGI (OVCAR-5 ovarian) of the same compound?
Answer: The TGI was 29.9 µM.

Question: And the TGI (U251 CNS)?
Answer: Its TGI is 32.9 µM.

Question: And the TGI (PC-3 prostate)?
Answer: The TGI was 31.1 µM.

Question: And the TGI (NCI-H460 lung)?
Answer: Its TGI is 52.1 µM.

Question: What about the TGI (SK-MEL-2 melanoma) of the same compound?
Answer: The TGI was 43.8 µM.

Question: What about the TGI (KM12 colon) of the same compound?
Answer: The TGI was 32.9 µM.

Question: And the TGI (SF-539 CNS)?
Answer: Its TGI is 24.2 µM.

Question: And the TGI (ACHN renal)?
Answer: Its TGI is 30.1 µM.

Question: What about the TGI (SR leukemia) of the same compound?
Answer: The TGI was 35.7 µM.

Question: And the TGI (BT-549 breast)?
Answer: The TGI was 31.3 µM.

Question: What about the TGI (NCI-H226 lung) of the same compound?
Answer: Its TGI is 98.5 µM.

Question: And the TGI (HCC-2998 colon)?
Answer: Its TGI is 40.3 µM.

Question: And the TGI (HOP-92 NSCLC)?
Answer: Its TGI is 25.5 µM.

Question: And the TGI (MDA-MB-231 breast)?
Answer: Its TGI is 27.9 µM.

Question: What about the TGI (SF-295 CNS) of the same compound?
Answer: The TGI was 33.2 µM.

Question: And the TGI (HCT-15 colon)?
Answer: The TGI was 37 µM.

Question: What about the TGI (786-0 renal) of the same compound?
Answer: The TGI was 23.9 µM.

Question: And the TGI (OVCAR-4 ovarian)?
Answer: Its TGI is 35.7 µM.

Question: What about the TGI (CAKI-1 renal) of the same compound?
Answer: Its TGI is 26.7 µM.

Question: What about the TGI (K-562 leukemia) of the same compound?
Answer: Its TGI is 32 µM.

Question: And the TGI (SK-OV-3 ovarian)?
Answer: The TGI was 33.8 µM.

Question: What about the TGI (MDA-MB-435) of the same compound?
Answer: Its TGI is 30.4 µM.

Question: What about the TGI (COLO 205 colon) of the same compound?
Answer: Its TGI is 28.2 µM.

Question: And the TGI (CCRF-CEM leukemia)?
Answer: Its TGI is greater than 100 µM.

Question: What about the TGI (RXF 393 renal) of the same compound?
Answer: Its TGI is 32.5 µM.

Question: What about the TGI (A549 NSCLC) of the same compound?
Answer: Its TGI is greater than 100 µM.

Question: And the TGI (SK-MEL-5 melanoma)?
Answer: Its TGI is 33.5 µM.

Question: What about the TGI (MDA-N) of the same compound?
Answer: The TGI was 31.9 µM.

Question: And the TGI (RPMI-8226 leukemia)?
Answer: Its TGI is 25.5 µM.

Question: What about the TGI (T-47D breast) of the same compound?
Answer: The TGI was 36.7 µM.

Question: What about the TGI (NCI-H522 lung) of the same compound?
Answer: The TGI was 42.1 µM.

Question: And the TGI (UACC-257 melanoma)?
Answer: Its TGI is 29.4 µM.

Question: And the TGI (UACC-62 melanoma)?
Answer: The TGI was 33.2 µM.

Question: What about the TGI (SF-268 CNS) of the same compound?
Answer: Its TGI is 35.5 µM.

Question: What about the TGI (MCF7 breast) of the same compound?
Answer: Its TGI is 66.9 µM.

Question: And the TGI (HCT-116 colon)?
Answer: Its TGI is 30.5 µM.

Question: What about the TGI (SN12C renal) of the same compound?
Answer: Its TGI is 32.1 µM.

Question: And the TGI (LOX IMVI melanoma)?
Answer: The TGI was 37.5 µM.

Question: What about the TGI (MALME-3M melanoma) of the same compound?
Answer: Its TGI is 32.9 µM.

Question: What about the TGI (DU-145 prostate) of the same compound?
Answer: The TGI was 31.6 µM.

Question: And the TGI (SK-MEL-28 melanoma)?
Answer: Its TGI is 30.9 µM.

Question: What about the TGI (M14 melanoma) of the same compound?
Answer: Its TGI is 21.2 µM.

Question: And the TGI (OVCAR-3 ovarian)?
Answer: The TGI was 37.7 µM.

Question: And the TGI (EKVX NSCLC)?
Answer: The TGI was 30.1 µM.

Question: And the TGI (TK-10 renal)?
Answer: The TGI was 30.6 µM.

Question: What about the TGI (SNB-75 CNS) of the same compound?
Answer: The TGI was 93.6 µM.

Question: What about the TGI (SW-620 colon) of the same compound?
Answer: Its TGI is 29.8 µM.

Question: What about the TGI (NCI-H23 lung) of the same compound?
Answer: Its TGI is 29.9 µM.

Question: And the TGI (HT29 colon)?
Answer: The TGI was 35.5 µM.
